Where two headings read alike, the source gives them in different places.
Target: T1, SIRT1 (Homo sapiens, UniProt Q96EB6)
T1 sequence (Q96EB6 1-747): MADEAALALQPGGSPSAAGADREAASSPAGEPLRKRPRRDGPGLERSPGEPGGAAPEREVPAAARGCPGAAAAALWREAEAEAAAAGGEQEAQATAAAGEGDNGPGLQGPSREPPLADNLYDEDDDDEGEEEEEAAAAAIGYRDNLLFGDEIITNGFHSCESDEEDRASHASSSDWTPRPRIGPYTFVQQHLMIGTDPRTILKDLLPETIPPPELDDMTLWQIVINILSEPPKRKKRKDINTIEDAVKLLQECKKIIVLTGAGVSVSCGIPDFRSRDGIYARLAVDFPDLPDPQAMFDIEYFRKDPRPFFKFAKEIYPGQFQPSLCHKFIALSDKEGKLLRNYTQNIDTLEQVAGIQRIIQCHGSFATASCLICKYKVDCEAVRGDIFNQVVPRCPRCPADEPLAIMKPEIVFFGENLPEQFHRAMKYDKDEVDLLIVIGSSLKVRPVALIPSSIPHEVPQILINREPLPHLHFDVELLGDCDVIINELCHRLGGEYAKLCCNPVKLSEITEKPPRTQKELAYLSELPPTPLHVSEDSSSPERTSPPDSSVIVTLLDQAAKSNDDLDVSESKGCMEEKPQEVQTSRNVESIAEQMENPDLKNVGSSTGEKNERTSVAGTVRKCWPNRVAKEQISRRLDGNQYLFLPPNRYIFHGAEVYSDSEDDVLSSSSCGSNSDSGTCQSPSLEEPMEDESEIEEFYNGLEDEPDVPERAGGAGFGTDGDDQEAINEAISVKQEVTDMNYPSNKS
Assay: Trp mass spectrometry assay (SIRT1 activation)
Assay type: biochemical
Conditions: for Emax: percent maximum fold activation of SIRT1, read-out: Tryp % Fold Act
Outline: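 Activation is expressed as EC1.5, the concentration raising activity 50% above DMSO control, and as maximum percent of control. Mass-spec readout was OAADPR or deacetylated Trp peptide after a formic-acid-quenched 25-min, 25 °C reaction: 10 nM bacterially expressed His-SIRT1, 0.5 μM acetyl-p53-derived peptide, 120 μM NAD+, pH 7.5 HEPES with […].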

[1] = Trp mass spectrometry assay, EC1.5 = concentration giving 150% activation of SIRT1
[2] = concentration of test compound that results in 150% activation of SIRT1, Trp peptide substrate
[3] = Trp mass spectrometry assay, EC1.5 = concentration of test compound that results in 150% activation of SIRT1

## O=C(NCc1ncc(-c2cccc(NC(=O)N3c4nc(-c5cccc(C(F)(F)F)c5)ccc4N4CC[C@H]3C4)c2)o1)OCc1ccccc1 [Example 706]
[1]
  Tryp AVG EC1.5 (μM): A (EC1.5<1 μM)
Trp mass spectrometry assay
  Emax: ≥ 150%

## O=C(Nc1cccc(C(F)(F)F)c1)N1c2nc(-c3cccc(C(F)(F)F)c3)ccc2N2CC[C@H]1C2 [Example 617]
[2]
  Tryp AVG EC1.5 (μM): A (EC1.5<1 μM)
Trp peptide substrate
  Emax: ≥ 150%

## NC(=O)CN1CCC(c2cccc(NC(=O)N3c4nc(-c5cccc(C(F)(F)F)c5)ccc4N4CC[C@H]3C4)c2)C1 (stereo partly shown) [Example 594]
[2]
  Tryp AVG EC1.5 (μM): A (EC1.5<1 μM)
Trp peptide substrate
  Emax: ≥ 150%

## O=C(Nc1cc(-c2cnco2)ccn1)N1c2nc(-c3cccc(C(F)(F)F)c3)ccc2N2CCC[C@H]1C2 [Example 591]
[2]
  Tryp AVG EC1.5 (μM): A (EC1.5<1 μM)
Trp peptide substrate
  Emax: ≥ 150%

## O=C(Nc1cccnc1)N1c2nc(-c3cccc(Cl)c3)ccc2N2CC[C@H]1C2 [Example 107]
Trp mass spectrometry assay
  Emax: ≥ 150%

## Cc1nn(C)c(C)c1-c1ccc2c(n1)N(C(=O)Nc1cccnc1)[C@H]1CCN2C1 [Example 486]
[2]
  Tryp AVG EC1.5 (μM): C (EC1.5>25 μM)
Trp peptide substrate
  Emax: ≥ 150%

## C#CCNc1nccc(NC(=O)N2c3nc(-c4ccc(C5(C(F)(F)F)N=N5)cc4)ccc3N3CC[C@H]2C3)n1 [Example 805]
[1]
  Tryp AVG EC1.5 (μM): B (EC1.5 1-25 μM)
Trp mass spectrometry assay
  Emax: ≥ 150%

## O=C(Nc1cccnn1)N1c2nc(-c3cccc(Cl)c3)ccc2N2CC[C@H]1C2 [Example 822]
[1]
  Tryp AVG EC1.5 (μM): A (EC1.5<1 μM)
Trp mass spectrometry assay
  Emax: ≥ 150%

## CN(C)c1ccnc(NC(=O)N2c3nc(N4CCCC(C(F)(F)F)C4)ccc3N3CC[C@H]2C3)n1 (stereo partly shown) [Example 217]
[3]
  Tryp AVG EC1.5 (μM): B (EC1.5 1-25 μM)
Trp mass spectrometry assay
  Emax: ≥ 150%

## O=C(Nc1ccccn1)N1c2nc(-c3ccnc(C(F)(F)F)c3)ccc2N2CC[C@H]1C2 [Example 142]
[3]
  Tryp AVG EC1.5 (μM): A (EC1.5<1 μM)
Trp mass spectrometry assay
  Emax: ≥ 150%

## [N-]=[N+]=NCc1cc(N=[N+]=[N-])cc(-c2ccc3c(n2)N(C(=O)Nc2cnccn2)[C@H]2CCN3C2)c1 [Example 808]
[1]
  Tryp AVG EC1.5 (μM): A (EC1.5<1 μM)
Trp mass spectrometry assay
  Emax: ≥ 150%

## N#Cc1cncc(-c2ccc3c(n2)N(C(=O)Nc2ccccn2)[C@H]2CCN3C2)c1 [Example 373]
[2]
  Tryp AVG EC1.5 (μM): A (EC1.5<1 μM)
Trp peptide substrate
  Emax: ≥ 150%

## O=C(Nc1cncnc1)N1c2nc(-c3cccc(C(F)(F)F)c3)ccc2N2CC[C@H]1C2 [Example 23]
Trp mass spectrometry assay
  Emax: ≥ 150%

## CCc1cccc(CC)c1NC(=O)N1c2nc(-c3cccc(C(F)(F)F)c3)ccc2N2CC[C@H]1C2 [Example 71]
Trp mass spectrometry assay
  Emax: < 150%

## Cn1cc(NC(=O)N2c3nc(-c4cccc(OC(F)(F)F)c4)ccc3N3CC[C@H]2C3)cn1 [Example 167]
[3]
  Tryp AVG EC1.5 (μM): B (EC1.5 1-25 μM)
Trp mass spectrometry assay
  Emax: ≥ 150%

## CN(C)c1cccc(-c2ccc3c(n2)N(C(=O)Nc2cnccn2)[C@@H]2CCCN3C2)c1 [Example 266]
[2]
  Tryp AVG EC1.5 (μM): B (EC1.5 1-25 μM)
Trp peptide substrate
  Emax: ≥ 150%

## Cc1nc(NC(=O)N2c3nc(-c4cccc(N5CCOCC5)c4)ccc3N3CCC[C@H]2C3)sc1C [Example 537]
[2]
  Tryp AVG EC1.5 (μM): B (EC1.5 1-25 μM)
Trp peptide substrate
  Emax: ≥ 150%

## COc1cc(NC(=O)N2c3nc(-c4cccc(C(F)(F)F)c4)ccc3N3C[C@@H](O)[C@H]2C3)nc(OC)n1 [Example 664]
[1]
  Tryp AVG EC1.5 (μM): B (EC1.5 1-25 μM)
Trp mass spectrometry assay
  Emax: ≥ 150%

## O=C(Nc1ccncn1)N1c2nc(-c3cccnc3)ccc2N2CCC[C@H]1C2 [Example 456]
[2]
  Tryp AVG EC1.5 (μM): B (EC1.5 1-25 μM)
Trp peptide substrate
  Emax: ≥ 150%

## CN(C)c1cc(NC(=O)N2c3nc(N4CCCC(C(F)(F)F)C4)ccc3N3CC[C@H]2C3)ccn1 (stereo partly shown) [Example 216]
[3]
  Tryp AVG EC1.5 (μM): A (EC1.5<1 μM)
Trp mass spectrometry assay
  Emax: ≥ 150%

## O=C(Nc1cccc(-c2cnco2)n1)N1c2nc(-c3cncc(C(F)(F)F)c3)ccc2N2C[C@@H](O)[C@H]1C2 [Example 703]
[1]
  Tryp AVG EC1.5 (μM): A (EC1.5<1 μM)
Trp mass spectrometry assay
  Emax: ≥ 150%

## O=C(CCCC[C@@H]1SCC2NC(=O)NC21)NCCCCCC(=O)NCc1ccc(NC(=O)N2c3nc(-c4cccc(C(F)(F)F)c4)ccc3N3CC[C@H]2C3)cc1 (stereo partly shown) [Example 428]
[2]
  Tryp AVG EC1.5 (μM): A (EC1.5<1 μM)
Trp peptide substrate
  Emax: ≥ 150%

## COc1cc(NC(=O)N2c3nc(-c4cccc(C#N)c4)ccc3N3CCC[C@@H]2C3)ncn1 [Example 209]
[3]
  Tryp AVG EC1.5 (μM): C (EC1.5>25 μM)
Trp mass spectrometry assay
  Emax: < 150%

Reference: patent US9765075B2, “Substituted bridged urea analogs as sirtuin modulators” (GLAXOSMITHKLINE LLC, priority 2013, dated 2017)
